# Assay results: patent US10307463B2 (priority 2003, dated 2019)
# Assays:
# [1] = test system: rats; conditions: rat, in vivo
# [2] = test system: respiratory minute volume responses to CO2; conditions: rat, in vivo
# [3] = test system: GI transit; conditions: rat, in vivo
# [4] = test system: gross behavioral and cardiovascular effects; conditions: rat, in vivo
# [5] = pH 4
# [6] = in vivo; conditions: dog
# [7] = in vivo; conditions: rat
# [8] = test system: dogs; conditions: dog, in vivo
smiles,measurement,setting,value
CSCC[C@@H]1NC(=O)[C@H](CC(C)C)NC(=O)[C@H](CCCNC(=N)N)NC(=O)[C@H](CO)NC(=O)[C@@H]2CSSC[C@@H]3NC(=O)[C@H](CO)NC(=O)CNC(=O)[C@H]([C@@H](C)O)NC(=O)[C@H](CSSC[C@H](N)C(=O)N[C@@H](CCCCN)C(=O)NCC(=O)N[C@@H](CCCCN)C(=O)NCC(=O)N[C@@H](C)C(=O)N[C@@H](CCCCN)C(=O)N2)NC(=O)[C@H](CSSC[C@@H](C(N)=O)NC(=O)[C@H](CCCCN)NC(=O)CNC(=O)[C@H](CO)NC(=O)[C@H](CCCNC(=N)N)NC3=O)NC(=O)[C@H](CC(=O)O)NC(=O)[C@H](Cc2ccc(O)cc2)NC1=O [ziconotide],"body weight, food intake or clinical pathology parameters",[1],no treatment-related changes
same,mean plasma drug level relative to human,[1],approximately 3 fold
same,target organ toxicity at termination,[1],nor was any target organ toxicity identified
same,"respiratory depression, subacute administration",[2],did not induce respiratory depression
same,respiratory minute volume responses to CO2 / acute respiratory depression,[2],did not depress
same,GI transit,[3],does not itself affect GI tract motility
same,gross behavioral and cardiovascular effects,[4],well tolerated
same,stability in solution,[5],stable at 45 °C for weeks
same,level at 672 h,[6],< 4 ng/mL
same,level at 672 h,[7],< 4 ng/mL
same,"body weight, food intake or clinical pathology parameters",[8],no treatment-related changes
same,granuloma formation at the catheter tip,[8],no granuloma formation
same,mean plasma drug level relative to human,[8],~10 fold
same,"moribund euthanasia due to CNS effects (tremors, shaking-behavior, ataxia)",[8],4/16
same,target organ toxicity at termination,[8],nor was any target organ toxicity identified
